Activity calls are given as the source filed them.
How the values were obtained:
[1] = target: T1, High affinity choline transporter 1 (Homo sapiens, UniProt Q9GZV3); assay: human choline transporter blockers, potency – cell-based, 5-point CRC, membrane potential dye, dose response (AID 504840); type: functional
T1 sequence (Q9GZV3 whole entry): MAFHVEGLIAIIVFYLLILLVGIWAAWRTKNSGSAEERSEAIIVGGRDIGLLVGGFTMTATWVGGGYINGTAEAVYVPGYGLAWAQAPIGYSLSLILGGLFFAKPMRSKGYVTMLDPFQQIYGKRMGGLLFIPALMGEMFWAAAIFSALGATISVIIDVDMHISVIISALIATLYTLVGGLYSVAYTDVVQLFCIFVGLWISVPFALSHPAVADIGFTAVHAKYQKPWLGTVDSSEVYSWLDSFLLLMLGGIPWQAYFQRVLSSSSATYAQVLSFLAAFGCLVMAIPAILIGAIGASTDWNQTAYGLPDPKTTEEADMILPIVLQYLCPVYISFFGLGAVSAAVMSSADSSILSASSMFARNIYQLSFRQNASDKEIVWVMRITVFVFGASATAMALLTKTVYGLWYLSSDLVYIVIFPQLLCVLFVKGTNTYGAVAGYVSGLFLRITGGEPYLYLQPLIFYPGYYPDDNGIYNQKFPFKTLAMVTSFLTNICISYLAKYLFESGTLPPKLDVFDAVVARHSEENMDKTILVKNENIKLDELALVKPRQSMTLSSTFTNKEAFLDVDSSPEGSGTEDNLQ

[2] = target: T1, High affinity choline transporter 1; assay: human choline transporter blockers, potency – cell-based, 10-point CRC, membrane potential dye, dose response (AID 588401); type: functional;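 further: membrane potential dye fluorescence of choline-evoked depolarization via CHT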
[3] = target: T2, Dual specificity protein phosphatase 3 (Homo sapiens, UniProt P51452); assay: VHR1 phosphatase inhibitors, primary screen, biochemical, absorbance, uHTS (AID 1654)
T2 sequence (P51452 whole entry): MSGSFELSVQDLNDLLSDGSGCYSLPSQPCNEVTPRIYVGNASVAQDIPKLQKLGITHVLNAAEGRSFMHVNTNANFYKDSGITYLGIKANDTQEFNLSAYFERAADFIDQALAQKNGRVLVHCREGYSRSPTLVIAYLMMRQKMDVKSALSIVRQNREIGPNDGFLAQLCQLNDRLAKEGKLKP

[4] = target: T2, Dual specificity protein phosphatase 3; assay: VHR1 phosphatase inhibitors, biochemical (AID 1878)
[5] = target: T3, Dual specificity protein phosphatase 6 (Rattus norvegicus, UniProt Q64346); assay: inhibition of rat DUSP6 enzyme activity – biochemical, in vitro, primary screen (AID 425)
T3 sequence (Q64346 whole entry): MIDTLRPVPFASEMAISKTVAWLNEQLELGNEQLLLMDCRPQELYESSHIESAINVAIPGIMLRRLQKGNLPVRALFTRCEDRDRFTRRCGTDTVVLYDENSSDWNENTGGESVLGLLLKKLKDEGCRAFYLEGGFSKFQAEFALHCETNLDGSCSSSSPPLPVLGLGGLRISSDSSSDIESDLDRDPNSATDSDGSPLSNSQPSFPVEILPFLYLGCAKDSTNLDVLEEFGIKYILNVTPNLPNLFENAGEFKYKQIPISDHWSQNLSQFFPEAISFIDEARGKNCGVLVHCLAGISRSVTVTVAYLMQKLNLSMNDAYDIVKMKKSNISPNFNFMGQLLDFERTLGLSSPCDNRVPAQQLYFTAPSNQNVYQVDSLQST

[6] = target: Tyrosine-protein phosphatase non-receptor type 11 (Homo sapiens, UniProt Q06124); assay: PTPN11 enzyme inhibitors – biochemical, selectivity assay for STEP inhibitor project, dose response (AID 602367); type: functional; conditions: read-out: IC50_Mean
Tyrosine-protein phosphatase non-receptor type 11, sequence (Q06124 whole entry): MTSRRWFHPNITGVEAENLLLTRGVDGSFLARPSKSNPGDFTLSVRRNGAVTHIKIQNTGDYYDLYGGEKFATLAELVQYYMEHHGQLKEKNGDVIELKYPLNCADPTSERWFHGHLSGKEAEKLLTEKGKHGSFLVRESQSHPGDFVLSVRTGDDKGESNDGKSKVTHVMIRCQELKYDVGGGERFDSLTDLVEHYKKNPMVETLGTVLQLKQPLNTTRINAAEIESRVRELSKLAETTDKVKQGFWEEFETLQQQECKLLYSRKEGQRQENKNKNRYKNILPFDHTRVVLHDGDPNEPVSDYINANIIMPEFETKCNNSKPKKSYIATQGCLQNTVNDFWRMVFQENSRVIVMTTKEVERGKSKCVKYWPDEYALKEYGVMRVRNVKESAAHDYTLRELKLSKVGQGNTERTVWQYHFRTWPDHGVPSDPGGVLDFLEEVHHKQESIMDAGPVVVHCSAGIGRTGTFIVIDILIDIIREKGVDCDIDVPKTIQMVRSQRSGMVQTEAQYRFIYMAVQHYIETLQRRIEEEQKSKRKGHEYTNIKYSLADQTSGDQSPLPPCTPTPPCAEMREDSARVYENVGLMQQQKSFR

[7] = target: Tyrosine-protein phosphatase non-receptor type 5 (Homo sapiens, UniProt P54829); assay: PTPN5 enzyme inhibition – biochemical, fluorescence intensity, uHTS hits, confirmation (AID 602372); type: functional; conditions: read-out: IC50_Mean
Tyrosine-protein phosphatase non-receptor type 5, sequence (P54829 whole entry): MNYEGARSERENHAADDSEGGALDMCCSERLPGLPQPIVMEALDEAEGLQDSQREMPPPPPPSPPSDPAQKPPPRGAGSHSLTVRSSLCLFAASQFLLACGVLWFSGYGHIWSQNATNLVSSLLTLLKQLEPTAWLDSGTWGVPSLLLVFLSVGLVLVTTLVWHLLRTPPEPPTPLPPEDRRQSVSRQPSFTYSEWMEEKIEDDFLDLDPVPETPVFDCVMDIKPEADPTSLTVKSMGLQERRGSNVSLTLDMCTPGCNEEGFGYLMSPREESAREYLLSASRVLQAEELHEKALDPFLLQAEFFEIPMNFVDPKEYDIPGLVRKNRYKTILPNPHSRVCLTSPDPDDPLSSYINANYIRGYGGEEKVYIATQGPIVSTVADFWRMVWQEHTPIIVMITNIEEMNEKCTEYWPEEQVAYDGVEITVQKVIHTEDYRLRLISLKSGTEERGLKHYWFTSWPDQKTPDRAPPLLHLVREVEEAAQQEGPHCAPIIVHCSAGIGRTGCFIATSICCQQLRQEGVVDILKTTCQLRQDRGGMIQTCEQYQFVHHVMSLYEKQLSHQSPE

[8] = target: T2, Dual specificity protein phosphatase 3; assay: VHR phosphatase inhibition, dose response, selectivity assay for STEP inhibitor project, biochemical (AID 602374); type: functional; conditions: read-out: IC50_Mean
Interleukin-8 = target: T4, Interleukin-8 (Homo sapiens, UniProt P10145); assay: Dose Response confirmation of uHTS small molecule hits for cystic fibrosis induced NFkb Inhibitors in a PAF-induced IL8 counterscreen.; type: functional; conditions: read-out: IC50_Mean
T4 sequence (P10145 whole entry): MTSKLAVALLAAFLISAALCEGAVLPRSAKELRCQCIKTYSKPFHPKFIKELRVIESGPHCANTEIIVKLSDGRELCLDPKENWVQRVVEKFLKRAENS

[9] = reduced cellular PGC1a acetyl-lysine signal – cell-based, cherry-picked samples, dose response (AID 720514); type: functional;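 further: potency may reflect raised or lowered acetylation signal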
Paired box protein Pax-8 = Paired box protein Pax-8 (Homo sapiens, UniProt Q06710); assay: PAX8 transcriptional activity inhibition in RMG-I – RMG-I cells, luciferase, cherry-pick, dose response (AID 687027); type: functional, cell-based;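 further: luciferase reporter driven by Pax8 target thyroperoxidase promoter measured by SteadyGlo luminescence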
Paired box protein Pax-8, sequence (Q06710 whole entry): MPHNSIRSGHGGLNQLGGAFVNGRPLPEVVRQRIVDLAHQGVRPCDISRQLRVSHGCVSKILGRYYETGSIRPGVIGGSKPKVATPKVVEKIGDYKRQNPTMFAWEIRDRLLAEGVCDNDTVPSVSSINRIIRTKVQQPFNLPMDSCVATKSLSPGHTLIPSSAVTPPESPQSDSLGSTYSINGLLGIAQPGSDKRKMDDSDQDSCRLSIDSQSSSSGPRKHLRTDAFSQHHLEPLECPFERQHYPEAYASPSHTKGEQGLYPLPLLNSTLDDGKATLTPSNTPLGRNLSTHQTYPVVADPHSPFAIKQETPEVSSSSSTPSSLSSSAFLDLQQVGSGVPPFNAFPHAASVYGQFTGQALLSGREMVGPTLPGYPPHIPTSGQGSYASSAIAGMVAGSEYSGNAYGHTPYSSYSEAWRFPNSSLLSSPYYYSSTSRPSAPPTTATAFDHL

[10] = CMV-driven luciferase expression suppression in HEK293 – cell-based, luminescence, dry powder, counter-screen for Pax8 inhibitor project, dose response (AID 743020); type: functional
[11] = A549 cell cytotoxicity, dose response, cytotoxicity control, plate reader, cherry-pick, antagonist series (AID 743412); type: functional, cell-based
[12] = toxicity toward HepG2 liver cells – cell-based, plate reader, cherry-pick, antagonist series, cytotoxicity control, dose response (AID 743416); type: functional
[13] = blockers of bursicon-stimulated LGR2 cAMP reporter – cell-based, HEK293, CRE-luciferase reporter, cherry pick, set 2, dose response (AID 743343); type: functional;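 further: transfected cells were stimulated with diluted bursicon conditioned medium after compound addition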
[14] = blockade of melanocortin 4 receptor signaling – cell-based, plate reader, cherry pick, counter-screen for LGR2 antagonist project, dose response (AID 743444); type: functional;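 further: transfected HEK 293 cells stimulated with alpha-MSH peptide; potency of inhibitors of the alpha-MSH evoked signal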
[15] = viability loss in HEK293 cells – cell-based, plate reader, cherry-picked samples, cytotoxicity control, dose response (AID 743446); type: functional
[16] = target: Ras and Rab interactor 1/Tyrosine-protein kinase ABL1 (Homo sapiens, UniProt P00519+Q13671); type: functional;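 further: biochemical TR-FRET dose-response test measuring inhibition of binding between Rin1 and Abl proteins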
Ras and Rab interactor 1/Tyrosine-protein kinase ABL1, sequence (P00519 whole entry): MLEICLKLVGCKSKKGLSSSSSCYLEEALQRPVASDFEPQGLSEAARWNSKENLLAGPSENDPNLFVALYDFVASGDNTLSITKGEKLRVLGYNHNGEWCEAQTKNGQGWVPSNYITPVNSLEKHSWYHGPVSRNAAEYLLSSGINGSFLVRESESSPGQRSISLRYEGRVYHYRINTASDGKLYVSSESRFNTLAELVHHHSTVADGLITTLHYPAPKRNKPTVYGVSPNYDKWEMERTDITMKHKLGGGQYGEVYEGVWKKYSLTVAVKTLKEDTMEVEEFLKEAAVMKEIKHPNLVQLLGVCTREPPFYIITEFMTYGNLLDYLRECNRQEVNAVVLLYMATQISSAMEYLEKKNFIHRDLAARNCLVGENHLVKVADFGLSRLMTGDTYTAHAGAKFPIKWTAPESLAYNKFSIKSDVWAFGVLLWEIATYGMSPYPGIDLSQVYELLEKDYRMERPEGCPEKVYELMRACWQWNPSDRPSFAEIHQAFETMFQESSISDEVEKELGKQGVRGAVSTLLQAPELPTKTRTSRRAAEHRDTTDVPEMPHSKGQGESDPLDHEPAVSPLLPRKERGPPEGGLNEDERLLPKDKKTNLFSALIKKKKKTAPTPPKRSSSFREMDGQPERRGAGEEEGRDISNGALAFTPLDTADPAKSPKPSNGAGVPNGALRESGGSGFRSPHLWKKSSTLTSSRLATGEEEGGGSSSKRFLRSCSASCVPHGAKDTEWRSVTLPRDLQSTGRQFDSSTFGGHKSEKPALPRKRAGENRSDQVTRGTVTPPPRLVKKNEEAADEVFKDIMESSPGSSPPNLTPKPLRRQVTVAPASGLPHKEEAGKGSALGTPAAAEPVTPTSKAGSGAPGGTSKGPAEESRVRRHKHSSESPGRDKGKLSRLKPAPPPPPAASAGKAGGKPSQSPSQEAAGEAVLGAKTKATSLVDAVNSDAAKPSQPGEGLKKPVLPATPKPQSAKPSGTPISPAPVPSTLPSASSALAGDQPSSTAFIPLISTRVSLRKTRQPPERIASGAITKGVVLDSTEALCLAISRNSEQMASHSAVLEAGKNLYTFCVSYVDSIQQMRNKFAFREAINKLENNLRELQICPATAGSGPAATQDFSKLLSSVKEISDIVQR
Ras and Rab interactor 1/Tyrosine-protein kinase ABL1, sequence (Q13671 whole entry): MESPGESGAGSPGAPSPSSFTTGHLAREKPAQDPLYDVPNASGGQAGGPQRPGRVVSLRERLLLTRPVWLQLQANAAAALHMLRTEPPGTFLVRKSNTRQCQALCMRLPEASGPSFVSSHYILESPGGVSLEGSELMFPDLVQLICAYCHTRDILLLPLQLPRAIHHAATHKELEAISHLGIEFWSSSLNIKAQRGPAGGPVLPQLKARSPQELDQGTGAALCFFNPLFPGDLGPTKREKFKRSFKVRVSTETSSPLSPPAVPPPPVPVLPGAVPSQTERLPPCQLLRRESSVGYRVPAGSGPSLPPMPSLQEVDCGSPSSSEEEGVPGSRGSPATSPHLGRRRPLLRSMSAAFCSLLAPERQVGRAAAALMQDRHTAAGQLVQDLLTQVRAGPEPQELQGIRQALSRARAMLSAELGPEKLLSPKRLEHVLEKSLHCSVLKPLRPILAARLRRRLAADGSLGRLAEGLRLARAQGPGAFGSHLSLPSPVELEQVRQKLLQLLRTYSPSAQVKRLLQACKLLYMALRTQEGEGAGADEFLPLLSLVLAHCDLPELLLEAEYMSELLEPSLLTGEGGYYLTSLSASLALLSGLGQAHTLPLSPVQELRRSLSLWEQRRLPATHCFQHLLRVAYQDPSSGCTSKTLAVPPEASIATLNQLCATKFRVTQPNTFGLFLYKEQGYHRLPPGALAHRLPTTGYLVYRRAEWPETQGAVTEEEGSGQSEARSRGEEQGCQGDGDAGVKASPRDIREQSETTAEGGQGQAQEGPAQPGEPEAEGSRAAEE

Cysteine protease ATG4B = target: T5, Cysteine protease ATG4B (Homo sapiens, UniProt Q9Y4P1); type: functional;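 further: Fluorescence-based dose-response confirmation assay measuring inhibition of ATG4B activity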
T5 sequence (Q9Y4P1 whole entry): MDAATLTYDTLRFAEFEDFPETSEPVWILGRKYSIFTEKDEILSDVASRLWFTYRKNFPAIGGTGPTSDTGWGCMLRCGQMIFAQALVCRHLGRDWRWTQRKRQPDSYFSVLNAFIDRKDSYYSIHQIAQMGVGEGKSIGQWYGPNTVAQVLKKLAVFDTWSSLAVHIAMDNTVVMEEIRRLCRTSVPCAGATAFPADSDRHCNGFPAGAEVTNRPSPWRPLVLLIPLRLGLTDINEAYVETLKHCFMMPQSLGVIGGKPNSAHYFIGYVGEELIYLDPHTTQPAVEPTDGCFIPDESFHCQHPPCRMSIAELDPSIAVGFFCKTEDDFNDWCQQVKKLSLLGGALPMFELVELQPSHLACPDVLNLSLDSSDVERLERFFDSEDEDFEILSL

Phospholipase A2 = Phospholipase A2 (Homo sapiens, UniProt P04054); type: functional;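 further: confirmatory dose-response counterscreen on phospholipase A2, testing hits that came from an ultra-high-throughput screen for ATG4B inhibitors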
Phospholipase A2, sequence (P04054 whole entry): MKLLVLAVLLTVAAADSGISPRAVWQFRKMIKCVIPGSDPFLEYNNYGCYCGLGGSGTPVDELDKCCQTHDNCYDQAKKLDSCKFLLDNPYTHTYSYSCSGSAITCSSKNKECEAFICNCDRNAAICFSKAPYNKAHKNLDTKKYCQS

Compound: CC(=O)OC1CC2(C)/C(=N\O)CCC2C2CCc3cc(O)ccc3C12 (configuration not stated)
- IC50 [1]: 0.953 µM (active)
- IC50 [2]: 0.605 µM (active)

Compound: COC(=O)Nc1sc2c(c1C(N)=O)CCC(C)C2 (configuration not stated)
- IC50 [3]: 1.9 µM (active)
- IC50 [4]: 3.56 µM (active)
- IC50 [5]: > 158 µM (not active)
- IC50 [6]: 1.81 µM (active)
- IC50 [7]: 4.65 µM (active)
- IC50 [8]: 0.312 µM (active)

Compound: Nc1ncnc(NCc2ccc(F)cc2)c1[N+](=O)[O-]
- IC50 (Interleukin-8): > 79 µM (inactive)
- AC50 [9]: 3.1 µM (active)

Compound: O=C(C[C@H]1C[C@@H]2c3cc(NS(=O)(=O)c4ccc(F)cc4)ccc3O[C@@H]2[C@@H](CO)O1)NCc1ccc(Oc2ccccc2)cc1
- AC50 (Paired box protein Pax-8): 8.32 µM (active)
- AC50 [10]: 40.6 µM (active)
- AC50 [11]: 19.3 µM (active)
- AC50 [12]: 20.9 µM (active)
- AC50 [13]: 26 µM (active)
- AC50 [14]: 25.6 µM (active)
- AC50 [15]: 22.3 µM (active)

Compound: Cc1ccc(C2N(c3cccc(Cl)c3)C(=O)N3CCCN23)cc1 (configuration not stated)
- IC50 [16]: 11.1 µM (inactive)

Compound: Cc1ccc(S(=O)(=O)N2CCC(C(=O)NCc3ccccc3Cl)CC2)cc1
- IC50 (Cysteine protease ATG4B): 17.5 µM (active)
- IC50 (Phospholipase A2): 9.46 µM (active)

Compound: Cc1ccc(NC(=O)c2ccc3nc(N4CCOCC4)sc3c2)c(Cl)c1
- IC50 [6]: 1.97 µM (active)
- IC50 [7]: 17.2 µM (active)
- IC50 [8]: 0.804 µM (active)

Compound: CCCCC[C@H](O)/C=C/[C@@H]1[C@@H](C/C=C\CCCC(=O)O)[C@@H](O)C[C@H]1O [DINOPROST TROMETHAMINE]
- IC50 [1]: 2.94 µM (active)
- IC50 [2]: 2.77 µM (active)

Compound: Cc1ccc2c(c1)[C@@H]1CN(C)CC[C@@H]1N2C(=O)Nc1cccc(C(F)(F)F)c1
- IC50 [1]: 8.23 µM (active)
- IC50 [2]: 6.31 µM (active)

Reference: ChEMBL document CHEMBL1201862, “PubChem BioAssay data set” (2004)
